{
  "source": "patent US4835161A",
  "about": "“Anti-histaminic compositions containing n-heterocyclyl-4-piperidinamines” (Janssen Pharmaceutica N.V., priority 1987, dated 1989)",
  "data": [
    {"tested_on": "compound 48/80-induced lethality", "test": "Protection of rats from compound 48/80-induced lethality", "type": "in vivo, rat (male, inbred Wistar strain)", "conditions": "Rattus norvegicus; subcutaneous or oral; 1 h before compound 48/80 0.5 mg/kg i.v.; survival after 4 h; dose protecting 50% of animals; read-out: compound 48/80 lethality test in rats-ED50", "protocol": "Protection of rats from compound 48/80-induced lethality\nThe protection from compound 48/80-induced lethal circulatory collapse appears to be a simple way of evaluating quantitatively the antihistaminic activity of test compounds. Male rats of an inbred Wistar strain, weighing 240-260 g were used in the experiment. After overnight starvation the rats were transferred to conditioned laboratories (temp.=21±1° C., relative humidity=65±5%). The rats were treated subcutaneously or orally with a test compound or with the solvent (NaCl solution, 0.9%). One hour after treatment there was injected intravenously compound 48/80, freshly dissolved in water, at a dose of 0.5 mg/kg (0.2 ml/100 g of body weight). […] Survival after 4 hours is therefore considered to be a safe criterion of a protective effect of drug administration. Said ED50 -values are the values in mg/kg body weight at which the tested compounds protect 50% of the tested animals against compound 48/80-induced lethality.", "units": {"ED50": "mg/kg"}, "values": [
      {"molecule": "Fc1ccc(Cn2c(NC3CCNCC3)nc3cccnc32)cc1", "note": "[compound 123]", "ED50": 0.08},
      {"molecule": "Fc1ccc(Cn2c(NC3CCNCC3)nc3ncccc32)cc1", "note": "[compound 135]", "ED50": 0.01},
      {"molecule": "c1coc(Cn2c(NC3CCNCC3)nc3cccnc32)c1", "note": "[compound 140, 3-(2-furanylmethyl)-N-(4-piperidinyl)-3H-imidazo[4,5-b]pyridin-2-amine]", "ED50": 0.08},
      {"molecule": "Cc1ccc(Cn2c(NC3CCNCC3)nc3cccnc32)o1", "note": "[compound 166, 3-[(5-methyl-2-furanyl)methyl]-N-(4-piperidinyl)-3H-imidazo[4,5-b]pyridin-2-amine]", "ED50": 0.04}
    ]}
  ]
}
